Measurements: the supplement of paper PMC11451515

System: P12-Ichikawa
Assay: cell viability relative to DMSO control; higher = less cytotoxic
Details: 48 h
Outline: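 NOMO1 or SEM (500 cells/well) or P12-Ichikawa (1000 cells/well) leukemia cells were adapted for at least four passages in each medium. They were seeded in 1536-well plates (5 μl) and pin-dosed with library compounds in DMSO over an 11-point threefold series, 47 μM to 0.79 nM. CellTiter-Glo One luminescence was read after 48 h at 37°C. Viability is the per-plate percentage relative to DMSO wells, with cell-free wells as background.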

[1] = HPLM + 10% dialyzed FBS, 0.000781 µM
[2] = HPLM + 10% dialyzed FBS, 0.00234 µM
[3] = HPLM + 10% dialyzed FBS, 0.00702 µM
[4] = HPLM + 10% dialyzed FBS, 0.0211 µM
[5] = HPLM + 10% dialyzed FBS, 0.0632 µM
[6] = HPLM + 10% dialyzed FBS, 0.19 µM
[7] = HPLM + 10% dialyzed FBS, 0.569 µM
[8] = HPLM + 10% dialyzed FBS, 1.71 µM
[9] = HPLM + 10% dialyzed FBS, 5.12 µM
[10] = HPLM + 10% dialyzed FBS, 15.4 µM
[11] = HPLM + 10% dialyzed FBS, 46.1 µM
[12] = RPMI 5 mM glucose + 10% FBS, 0.000781 µM
[13] = RPMI 5 mM glucose + 10% FBS, 0.00234 µM
[14] = RPMI 5 mM glucose + 10% FBS, 0.00702 µM
[15] = RPMI 5 mM glucose + 10% FBS, 0.0211 µM
[16] = RPMI 5 mM glucose + 10% FBS, 0.0632 µM
[17] = RPMI 5 mM glucose + 10% FBS, 0.19 µM
[18] = RPMI 5 mM glucose + 10% FBS, 0.569 µM
[19] = RPMI 5 mM glucose + 10% FBS, 1.71 µM
[20] = RPMI 5 mM glucose + 10% FBS, 5.12 µM
[21] = RPMI 5 mM glucose + 10% FBS, 15.4 µM
[22] = RPMI 5 mM glucose + 10% FBS, 46.1 µM
[23] = RPMI 5 mM glucose + 10% dialyzed FBS, 0.000781 µM
[24] = RPMI 5 mM glucose + 10% dialyzed FBS, 0.00234 µM
[25] = RPMI 5 mM glucose + 10% dialyzed FBS, 0.00702 µM
[26] = RPMI 5 mM glucose + 10% dialyzed FBS, 0.0211 µM
[27] = RPMI 5 mM glucose + 10% dialyzed FBS, 0.0632 µM
[28] = RPMI 5 mM glucose + 10% dialyzed FBS, 0.19 µM
[29] = RPMI 5 mM glucose + 10% dialyzed FBS, 0.569 µM
[30] = RPMI 5 mM glucose + 10% dialyzed FBS, 1.71 µM
[31] = RPMI 5 mM glucose + 10% dialyzed FBS, 5.12 µM
[32] = RPMI 5 mM glucose + 10% dialyzed FBS, 15.4 µM
[33] = RPMI 5 mM glucose + 10% dialyzed FBS, 46.1 µM

O=C(O)CSCC(=O)NC1CCSC1=O (configuration not stated)
cell viability [1]: 108% | cell viability [2]: 108% | cell viability [3]: 112% | cell viability [4]: 120% | cell viability [5]: 120% | cell viability [6]: 129% | cell viability [7]: 110% | cell viability [8]: 114% | cell viability [9]: 117% | cell viability [10]: 115% | cell viability [11]: 116% | cell viability [12]: 106% | cell viability [13]: 108% | cell viability [14]: 114% | cell viability [15]: 130% | cell viability [16]: 123% | cell viability [17]: 114% | cell viability [18]: 115% | cell viability [19]: 116% | cell viability [20]: 111% | cell viability [21]: 116% | cell viability [22]: 118% | cell viability [23]: 103% | cell viability [24]: 110% | cell viability [25]: 114% | cell viability [26]: 114% | cell viability [27]: 117% | cell viability [28]: 116% | cell viability [29]: 115% | cell viability [30]: 112% | cell viability [31]: 106% | cell viability [32]: 127% | cell viability [33]: 111%

CN(c1nccc(=O)[nH]1)C1CCN(c2nc3ccccc3n2Cc2ccc(F)cc2)CC1
cell viability [1]: 108% | cell viability [2]: 104% | cell viability [3]: 109% | cell viability [4]: 110% | cell viability [5]: 111% | cell viability [6]: 119% | cell viability [7]: 118% | cell viability [8]: 118% | cell viability [9]: 114% | cell viability [10]: 112% | cell viability [11]: 110% | cell viability [12]: 113% | cell viability [13]: 110% | cell viability [14]: 101% | cell viability [15]: 114% | cell viability [16]: 124% | cell viability [17]: 111% | cell viability [18]: 116% | cell viability [19]: 109% | cell viability [20]: 115% | cell viability [21]: 115% | cell viability [22]: 123% | cell viability [23]: 100% | cell viability [24]: 108% | cell viability [25]: 109% | cell viability [26]: 108% | cell viability [27]: 125% | cell viability [28]: 113% | cell viability [29]: 121% | cell viability [30]: 112% | cell viability [31]: 123% | cell viability [32]: 119% | cell viability [33]: 112%

Cc1cc(SCc2sc(-c3ccc(C(F)(F)F)cc3)nc2C)ccc1OCC(=O)O
cell viability [1]: 97.8% | cell viability [2]: 102% | cell viability [3]: 102% | cell viability [4]: 104% | cell viability [5]: 102% | cell viability [6]: 99.8% | cell viability [7]: 106% | cell viability [8]: 100% | cell viability [9]: 103% | cell viability [10]: 94.9% | cell viability [11]: 90.6% | cell viability [12]: 98.3% | cell viability [13]: 104% | cell viability [14]: 96.6% | cell viability [15]: 101% | cell viability [16]: 106% | cell viability [17]: 91.2% | cell viability [18]: 101% | cell viability [19]: 94.6% | cell viability [20]: 94.8% | cell viability [21]: 81.1% | cell viability [22]: 83.2% | cell viability [23]: 96.8% | cell viability [24]: 101% | cell viability [25]: 102% | cell viability [26]: 96.6% | cell viability [27]: 94.8% | cell viability [28]: 97% | cell viability [29]: 101% | cell viability [30]: 92.5% | cell viability [31]: 97.6% | cell viability [32]: 87.2% | cell viability [33]: 83.5%

CCNC(=O)Nc1ccc(-c2nc3c(c(N4CCOC[C@@H]4C)n2)CCN(C2COC2)C3)cc1
cell viability [1]: 114% | cell viability [2]: 111% | cell viability [3]: 113% | cell viability [4]: 112% | cell viability [5]: 110% | cell viability [6]: 100% | cell viability [7]: 82.1% | cell viability [8]: 63.8% | cell viability [9]: 56.6% | cell viability [10]: 49.5% | cell viability [11]: 46.1% | cell viability [12]: 113% | cell viability [13]: 113% | cell viability [14]: 107% | cell viability [15]: 116% | cell viability [16]: 104% | cell viability [17]: 96.8% | cell viability [18]: 82.7% | cell viability [19]: 61.6% | cell viability [20]: 55.4% | cell viability [21]: 41.3% | cell viability [22]: 33.9% | cell viability [23]: 114% | cell viability [24]: 108% | cell viability [25]: 111% | cell viability [26]: 106% | cell viability [27]: 103% | cell viability [28]: 95.8% | cell viability [29]: 79.3% | cell viability [30]: 64.1% | cell viability [31]: 54.6% | cell viability [32]: 39.9% | cell viability [33]: 32.7%
